Experimental data from patent publication US20030125234A1, “Alteration of protein stability” (priority 2001, published 2003).

Columns and labels:
Format in all cases: biochemical
[1] = molecular target: T1, yeast alcohol dehydrogenase (ADH) (Saccharomyces cerevisiae, UniProt P00330); assay: ADH oxidation-induced aggregation (turbidity at 360 nm), Cu(OP)2; settings: ADH 1 mg/mL, 37° C., Cu(OP)2
T1 construct: purchased Sigma
T1 sequence (P00330 2-348 limits assumed): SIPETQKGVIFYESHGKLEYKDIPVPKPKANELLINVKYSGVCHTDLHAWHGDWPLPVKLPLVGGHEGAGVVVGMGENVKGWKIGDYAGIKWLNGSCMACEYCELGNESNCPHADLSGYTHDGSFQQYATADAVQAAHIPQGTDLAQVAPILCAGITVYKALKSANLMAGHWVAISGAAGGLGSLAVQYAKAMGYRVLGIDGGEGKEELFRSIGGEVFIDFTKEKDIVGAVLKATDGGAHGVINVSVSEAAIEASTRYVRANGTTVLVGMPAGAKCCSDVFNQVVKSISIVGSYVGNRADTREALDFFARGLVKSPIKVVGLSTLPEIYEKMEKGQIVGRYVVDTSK
Method: (§1) Bovine insulin [Sigma, St. Louis, Mo., USA] was dissolved in phosphate saline (PBS) (50 mM sodium biphosphate, 100 mM sodium chloride), pH 7.0, bovine alpha-lactalbumin [Sigma] in 50 mM sodium phosphate, 100 mM sodium chloride and 2 mM EDTA, pH 6.2, chicken egg white lysozyme [Sigma] in 100 mM Tris, 1 mM EDTA, pH 8.2, human acidic fibroblast growth factor (FGF-1) in 6.2 mM sodium biphosphate, 120 mM sodium chloride, pH 7.2, porcine somatotropin (pST) [provided by Pfizer, Inc., Groton, Conn., USA] in 10 mM phosphate, pH 6. 1, human apolactoferrin (HLF) [Sigma] in 20 mM HEPES, 154 mM NaCl, pH 7.4, porcine heart citrate synthase (CS) in 40 mM HEPES, 50 mM KCl, 10 mM (NH4)2SO4 mM potassium acetate, pH 7.8, and yeast alcohol dehydrogenase (ADH) [Sigma] in pH 7.0 PBS. Selection of buffer solutions was based on an extensive series of preliminary studies to obtain appropriate insolubilization kinetics as described below.
(§2) Copper O-phenanthroline (1,10-phenanthroline) was prepared by mixing copper sulfate hexahydrate [Fisher] and o-phenanthroline [Sigma] in a 1:2 ratio. 1 M Dithiothreitol (DTT) was prepared at pH 7.0 PBS. Polyethylene glycol (M.W. 8000, Union Carbide, Danbury, Conn., USA) (PEG) was prepared at 20 mg/mL in 10 mM phosphate, pH 6.1.
(§3) The following compounds were obtained from Sigma and used without further purification: oxalic acid, sodium malonate, succinic acid, glutaric acid, adipic acid, pimelic acid, suberic acid, azelaic acid, guanidine hydrochloride, ammonium formate, beta-alanine, 4-aminobutyric acid, 5-aminovaleric acid, 6-aminocaproic acid, 7-aminoheptanoic acid, hydrazine, ethylenediamine, 1,3-diaminopropane, 1,4-diaminobutane, 1,5-diaminopentane, 1,6-diaminohexane, 1,7-diaminoheptane, Glu-Glu, Glu-Lys, Lys-Lys, diglycine, triglycine, tetraglycine, pentaglycine, and hexaglycine. […] Triglycine and tetraglycine were dissolved in pH 8.6 PBS, while pentaglycine and hexaglycine were dissolved in pH 10.6 PBS.
(§4) Each was either dissolved in pH 7.0 PBS, or pH 6.1 10 mM phosphate, and adjusted to the same pH.
(§5) Protein aggregation was monitored for 1 hour at 360 nm using an HP8453 UV-visible spectrophotometer system [Hewlett Packard, Germany]. […] Insulin (0.25 mg/mL (4.39E-5 M)) aggregation was monitored at 25° C. after addition of potential inhibitors and 20 μL of 1 M DTT (1.27E-4 M). Alpha-lactabumin (0.4 mg/mL (2.82E-5 M)) aggregation was monitored at 37° C. in the presence of 20 μL of 1 M DTT (1.27E-4 M). Lysozyme (0.4 mg/mL (2.86E-5 M)) aggregation was monitored at 25° C. in the presence of 20 μL of 1 M DTT (1.27E-4 M). FGF-1 (50 μg/mL (3.12E-6 M)) aggregation was monitored at 50° C. Porcine somatotropin (1.27 mg/mL (5.76E-5 M)) aggregation was monitored at 60° C. in the presence of PEG 8000 (20 mg/mL) which was included to enhance the protein association process through a simple exclusion volume effect. HLF (0.4 mg/mL (5.23E-6 M)) aggregation was monitored at 43° C. in the presence of 1.27E-4 M DTT. Citrate synthase (96 μg/mL (9.80E-7 M)) aggregation was monitored at45° C. ADH (1 mg/mL (7.14E-6 M)) was monitored at 37° C. following the addition of 7.76E-5 M Cu(OP)2. Aggregation was compared to protein in the absence of the particular dipolar compound. After stirring, experiments were initiated by the addition of proteins followed by stressing reagents to 1 cm pathlength cuvettes employing a seven-position thermostatted sample holder that was cycled at 30-second intervals. Alternatively, a microtiter plate reader was employed under the same conditions in a 96 well format.
(§6) All optical density (OD)360nm versus time results were exported into Excel [Microsoft] for data analysis.

[2] = molecular target: T2, chicken egg white lysozyme (Gallus gallus, UniProt P00698); assay: Lysozyme aggregation (turbidity at 360 nm) induced by DTT; settings: Lysozyme 0.4 mg/mL, 25° C., DTT; compound 1,000×; standard deviation in parenthesis
T2 construct: chicken egg white lysozyme [Sigma]; purchased Sigma; host or cells: egg white
T2 sequence (P00698 19-147): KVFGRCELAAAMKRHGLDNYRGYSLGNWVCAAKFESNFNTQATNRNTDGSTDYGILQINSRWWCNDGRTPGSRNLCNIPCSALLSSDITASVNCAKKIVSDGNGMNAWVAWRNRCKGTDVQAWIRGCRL
Method: as §1, §2, §3, §4, §5, §6

[3] = molecular target: T3, porcine somatotropin (pST) (Sus scrofa, UniProt P01248); assay: Porcine somatotropin aggregation (turbidity at 360 nm) with PEG 8000; settings: pST 1.27 mg/mL, 60° C., compound 100X, standard deviation in parenthesis
T3 construct: purchased Pfizer, Inc., Groton, Conn., USA (provided, not bought)
T3 sequence (P01248 27-216): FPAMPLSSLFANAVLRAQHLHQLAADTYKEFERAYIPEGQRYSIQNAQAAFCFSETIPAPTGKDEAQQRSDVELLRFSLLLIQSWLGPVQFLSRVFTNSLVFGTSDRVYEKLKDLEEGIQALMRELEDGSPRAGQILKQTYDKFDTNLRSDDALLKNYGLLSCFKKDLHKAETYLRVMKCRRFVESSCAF
Method: as §1, §2, §3, §4, §5, §6

[4] = molecular target: T4, porcine heart citrate synthase (CS) (Sus scrofa, UniProt P00889); assay: Citrate synthase thermal aggregation (turbidity at 360 nm); settings: CS 96 μg/mL, 45° C.; compound 1,000X; standard deviation in parenthesis
T4 construct: porcine heart citrate synthase (CS); from tissue; host or cells: porcine heart
T4 sequence (P00889 28-464): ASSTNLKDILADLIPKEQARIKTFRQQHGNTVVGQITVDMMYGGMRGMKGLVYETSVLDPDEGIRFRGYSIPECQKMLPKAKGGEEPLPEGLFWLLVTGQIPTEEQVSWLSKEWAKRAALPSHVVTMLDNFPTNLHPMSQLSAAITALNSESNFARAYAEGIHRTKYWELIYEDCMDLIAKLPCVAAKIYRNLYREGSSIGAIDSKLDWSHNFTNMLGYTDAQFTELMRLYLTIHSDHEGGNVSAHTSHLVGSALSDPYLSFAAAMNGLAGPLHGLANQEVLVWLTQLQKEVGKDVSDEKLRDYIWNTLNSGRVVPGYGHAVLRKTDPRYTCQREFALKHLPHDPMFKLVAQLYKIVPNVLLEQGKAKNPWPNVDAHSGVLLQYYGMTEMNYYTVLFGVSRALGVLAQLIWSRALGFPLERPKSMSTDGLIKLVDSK
Method: as §1, §3, §4, §5
(§7) All optical density (OD)360nm versus time results were exported into Excel [Microsoft] for data analysis. […] The maximum rate of change in OD versus time plots (r) was used to determine the rate of the reaction from the slope at this point.

[5] = molecular target: T5, human apolactoferrin (HLF) (Homo sapiens, UniProt P02788); assay: HLF aggregation (turbidity at 360 nm) induced by DTT; settings: HLF 0.4 mg/mL, 43° C., DTT; first HLF column, head 10,000×; standard deviation in parenthesis
T5 construct: purchased Sigma
T5 sequence (P02788 20-710): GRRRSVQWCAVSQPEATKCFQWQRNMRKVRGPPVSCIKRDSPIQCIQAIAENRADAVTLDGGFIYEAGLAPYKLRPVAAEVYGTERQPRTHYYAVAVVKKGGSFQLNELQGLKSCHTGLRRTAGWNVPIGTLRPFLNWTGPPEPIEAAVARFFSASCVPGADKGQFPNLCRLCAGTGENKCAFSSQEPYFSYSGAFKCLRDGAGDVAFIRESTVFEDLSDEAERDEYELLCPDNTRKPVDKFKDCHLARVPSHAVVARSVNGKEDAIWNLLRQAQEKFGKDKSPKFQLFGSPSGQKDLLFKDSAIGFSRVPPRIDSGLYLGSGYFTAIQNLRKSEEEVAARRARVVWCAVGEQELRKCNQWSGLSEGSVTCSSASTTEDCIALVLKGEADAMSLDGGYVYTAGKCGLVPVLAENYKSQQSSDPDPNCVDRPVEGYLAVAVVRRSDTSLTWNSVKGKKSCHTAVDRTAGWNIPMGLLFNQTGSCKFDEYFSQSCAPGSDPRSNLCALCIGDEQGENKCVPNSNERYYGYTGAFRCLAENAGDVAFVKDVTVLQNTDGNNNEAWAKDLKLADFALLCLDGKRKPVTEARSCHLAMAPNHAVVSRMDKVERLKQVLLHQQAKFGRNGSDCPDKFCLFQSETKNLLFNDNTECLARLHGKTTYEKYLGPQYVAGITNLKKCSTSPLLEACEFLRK
Method: as §1, §2, §3, §4, §5, §6

bovine alpha-lactalbumin = molecular target: T6, bovine alpha-lactalbumin (Bos taurus, UniProt P00711); assay: Alpha-lactalbumin aggregation (turbidity at 360 nm) induced by DTT; settings: for inhibition index: α Lactalbumin 0.4 mg/mL, 37° C., DTT, compound 1,000×, standard deviation in parenthesis
T6 construct: purchased Sigma
T6 sequence (P00711 20-142): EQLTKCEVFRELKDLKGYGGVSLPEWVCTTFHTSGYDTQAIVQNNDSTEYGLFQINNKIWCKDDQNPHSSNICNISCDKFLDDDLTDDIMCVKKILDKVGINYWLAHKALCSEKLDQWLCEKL
Method: as §1, §2, §3, §4, §5, §6

[6] = molecular target: human acidic fibroblast growth factor (FGF-1) (Homo sapiens, UniProt P05230); assay: FGF-1 thermal aggregation (turbidity at 360 nm); settings: FGF-1 50 μg/mL, 50° C.; compound 1,000×; standard deviation in parenthesis
Sequence of human acidic fibroblast growth factor (FGF-1) (P05230 whole entry): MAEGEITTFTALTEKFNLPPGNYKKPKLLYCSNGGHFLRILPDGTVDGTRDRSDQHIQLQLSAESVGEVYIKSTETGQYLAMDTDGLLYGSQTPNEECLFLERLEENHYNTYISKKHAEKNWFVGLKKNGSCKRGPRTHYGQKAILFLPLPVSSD
Method: as §1, §3, §4, §5, §7

Bovine insulin = molecular target: T7, Bovine insulin (Bos taurus, UniProt P01317); assay: Insulin aggregation (turbidity at 360 nm) induced by DTT; settings: Insulin 0.25 mg/mL, 25° C., DTT; compound 100×; standard deviation in parenthesis
T7 construct: purchased Sigma, St. Louis, Mo., USA
T7 sequence (P01317 25-54 limits assumed): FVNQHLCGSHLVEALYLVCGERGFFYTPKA
T7 sequence (P01317 85-105 limits assumed): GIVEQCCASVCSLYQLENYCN
Method: as §1, §2, §3, §4, §5, §6

[7] = compound 1,000X, standard deviation in parenthesis

Row | Substance | inhibition index [1, 7] | inhibition index [2] | inhibition index [3] | inhibition index [4] | inhibition index [5] | inhibition index (bovine alpha-lactalbumin) | inhibition index [6] | inhibition index (Bovine insulin) | inhibition of α-lactalbumin aggregation, in words (bovine alpha-lactalbumin) | inhibition index ([1]; compound 10,000X molar excess, Infinite = complete inhibition of aggregation over one hour)
1 | CH3—NH2-(Glu)^−-(Gly)n-(Glu)^−-COO^− [CH3—NH2—(E)^−—(G)1—(E)^−—COO^−] | 1.6 (0.1) | 0.9 (0.1) | 1.0 (0.1) | 0.8 (0.1) | 1.6 (0.1) | 0.2 (0.1) | 1.9 (0.1) | 0.5 (0.2) | – | –
2 | CH3—NH2-(Glu)^−-(Gly)n-(Glu)^−-COO^− [CH3—NH2—(E)^−—(G)3—(E)^−—COO^−] | 1.3 (0.1) | 0.9 (0.2) | 1.2 (0.2) | 1.0 (0.2) | 1.5 (0.3) | 0.5 (0.3) | 2.0 (0.3) | 1.3 (0.4) | – | –
3 | KGGGGGE [^+NH3-(Lys)^+-(Gly)n-(Glu)^−-COO^−, n = 5] | 1.4 (0.2) | 1.5 (0.4) | 0.5 (0.1) | 2.0 (0.2) | 0.8 (0.1) | 1.8 (0.2) | 1.4 (0.3) | 1.3 (0.3) | – | –
4 | ^+NH3-(Lys)^+-(Gly)n-(Glu)^−-COO^− [KGE] | 1.3 (0.1) | 2.8 (0.8) | 0.7 (0.0) | 1.2 (0.2) | 0.9 (0.1) | 0.3 (0.2) | 1.7 (0.4) | 0.6 (0.3) | – | –
5 | ^+NH3-(Lys)^+-(Gly)n-(Glu)^−-COO^− [KGGE] | 0.8 (0.1) | 2.6 (0.4) | 0.6 (0.1) | 1.4 (0.4) | 0.7 (0.1) | 0.5 (0.2) | 1.2 (0.2) | 1.0 (0.3) | – | –
6 | ^+NH3-(Lys)^+-(Gly)n-(Glu)^−-COO^− [KGGGE] | 1.2 (0.1) | 3.4 (0.1) | 0.6 (0.1) | 1.5 (0.1) | 0.8 (0.1) | 0.6 (0.1) | 1.9 (0.2) | 0.8 (0.1) | – | –
7 | ^+NH3-(Lys)^+-(Gly)n-(Glu)^−-COO^− [KGGGGE] | 1.4 (0.1) | 1.9 (0.5) | 0.6 (0.1) | 1.8 (0.2) | 0.8 (0.1) | 0.5 (0.1) | 1.9 (0.4) | 1.0 (0.1) | – | –
8 | ^+NH3-(Lys)^+-(Gly)n-(Lys)^+-CONH2 [^+NH3—(K)^+—(G)2—(K)^+—CONH2] | 0.8 (0.1) | 0.4 (0.1) | 1.2 (0.2) | 0.7 (0.2) | 1.3 (0.1) | 3.3 (0.9) | 1.8 (0.3) | 1.8 (0.1) | – | –
9 | ^+NH3-(Lys)^+-(Gly)n-(Lys)^+-CONH2 [^+NH3—(K)^+—(G)4—(K)^+—CONH2] | 1.5 (0.3) | 1.4 (0.5) | 0.9 (0.0) | 0.8 (0.2) | 1.9 (0.2) | 1.4 (0.3) | 2.0 (1.0) | 1.6 (0.3) | – | –
10 | ^+NH3-(Lys)^+-(Gly)n-(Lys)^+-CONH2 [^+NH3—(K)^+—(G)5—(K)^+—CONH2] | 1.5 (0.2) | 0.8 (0.4) | – | 0.8 (0.1) | 1.5 (0.3) | 2.6 (1.1) | 3.3 (0.8) | 1.7 (1.0) | Potent inhibitors | –
11 | hexaglycine | 1.7 (0.5) | 0.0 (0.0) | 0.7 (0.1) | 0.5 (0.1) | 1.7 (1.5) | 4.2 (1.1) | – | 1.5 (0.7) | Potent inhibitors | 20.3
